Ends that are not written are not given here.
Biological target: HLA-A*0201 molecule (Homo sapiens, UniProt P04439, D140Y/D185E/D98H/E176V/E277Q/G131W/G231S/I119V/I121R/I166T/I218V/L300P/L318F/N151K/N90K/P208A/P217A/Q86G/Q94H/R138H/R169H/T345S)
Assay: In vitro binding to HLA-A*0201
Details: not given
With SLADQLIHL [Vif 101 (1 S)] the IC50 was 43 nM.
Compound DLADQLIHL [Vif 101 (1 D)] has an IC50 of 1950 nM.
For ELADQLIHL [Vif101(1E)^var], the IC50 was 6590 nM.
GLADQLIHI [Vif 101 (9 I)] showed an IC50 of 30 nM.
With HLADQLIHQ [G1HL9Q] the IC50 was 1160 nM.
Work on `CC[C@H](C)[C@H](NC(=O)[C@H](CC(C)C)NC(=O)[C@H](CCC(N)=O)NC(=O)[C@H](CC(=O)O)NC(=O)[C@H](C)NC(=O)[C@H](CC(C)C)NC(=O)CN)C(=O)N[C@@H](Cc1c[nH]cn1)C(=O)N[C@@H](CC(C)C)C(=O)O` [Vif 101 (9L)] yielded an IC50 of 219 nM.

System: peptide pulsed HHD-EL4S3-Rob target cells
Assay: not given
Details: Corbet et al., 2003; cited from earlier work
For ALVEMGHHV [Vpu66(9V)^mod], the “immunogenicity of anchor-optimized epitope with cross-reaction to the natural epitope” value is listed as “very strong immune response”.
In the case of FLGKIWPV [Gag433(9V)^mod], the “immunogenicity of anchor-optimized epitope with cross-reaction to the natural epitope” value is given as “very strong immunogens”.

Reference: patent publication EP2021356B1, “HIV VACCINE” (priority 2006, dated 2007)
